The target in data set [1] is Muscarinic acetylcholine receptor M3 (Homo sapiens, UniProt P20309). As to the kind of experiment: Agonist activity at human recombinant muscarinic M3 receptor by HTS cell based assay. Format: functional.
The target in data set [2] is T1, Muscarinic acetylcholine receptor M4 (Rattus norvegicus, UniProt P08485).
T1 sequence (P08485 whole entry): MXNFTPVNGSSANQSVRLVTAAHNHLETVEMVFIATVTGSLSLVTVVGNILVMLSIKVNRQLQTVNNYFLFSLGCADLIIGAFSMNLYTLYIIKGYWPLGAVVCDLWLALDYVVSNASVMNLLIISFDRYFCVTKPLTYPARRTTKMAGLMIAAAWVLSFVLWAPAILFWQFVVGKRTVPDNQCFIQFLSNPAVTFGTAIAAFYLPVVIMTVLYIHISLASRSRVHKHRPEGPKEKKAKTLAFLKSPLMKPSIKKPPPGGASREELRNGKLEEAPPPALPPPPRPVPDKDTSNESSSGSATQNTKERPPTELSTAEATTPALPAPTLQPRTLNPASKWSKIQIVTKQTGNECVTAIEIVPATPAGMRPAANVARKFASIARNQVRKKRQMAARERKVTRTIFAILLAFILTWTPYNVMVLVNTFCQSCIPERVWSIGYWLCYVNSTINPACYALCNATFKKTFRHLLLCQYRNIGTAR
The experiment in a line: Agonist activity at rat muscarinic M4 receptor expressed in CHO cells. Format: functional, cell-based.

Data set [3] concerns Plasma. As to the kind of experiment: Fraction unbound in human plasma. The class given is ADME, cell-free.
The target in data set [4] is T2, Muscarinic acetylcholine receptor M1 (Rattus norvegicus) (UniProt P08482).
T2 sequence (whole entry): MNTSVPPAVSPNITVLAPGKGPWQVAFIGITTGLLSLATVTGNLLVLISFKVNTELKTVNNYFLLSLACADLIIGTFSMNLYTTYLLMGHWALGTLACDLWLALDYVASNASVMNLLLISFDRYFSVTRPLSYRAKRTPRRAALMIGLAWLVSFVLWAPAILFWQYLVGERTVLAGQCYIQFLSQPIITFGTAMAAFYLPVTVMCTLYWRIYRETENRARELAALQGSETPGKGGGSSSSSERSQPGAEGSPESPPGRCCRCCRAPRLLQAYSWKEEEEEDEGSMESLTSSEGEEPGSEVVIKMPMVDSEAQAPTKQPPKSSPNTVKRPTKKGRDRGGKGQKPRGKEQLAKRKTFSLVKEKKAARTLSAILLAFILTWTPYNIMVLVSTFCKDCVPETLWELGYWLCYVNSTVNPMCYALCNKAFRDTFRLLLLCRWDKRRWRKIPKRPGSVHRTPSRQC
The experiment in a line: Agonist activity at rat muscarinic M1 receptor expressed in CHO cells relative to acetylcholine. The class given is functional, cell-based.

Data set [5] addresses T3, Muscarinic acetylcholine receptor M1 (Rattus norvegicus, UniProt P08482).
T3 sequence (P08482 whole entry): T2 sequence (whole entry)
The experiment in a line: Agonist activity at rat recombinant muscarinic M1 receptor by HTS cell based assay. The class given is functional.

A short description of data set [6]: AUC in rat at 1 mg/kg, iv. The class given is ADME, organism-based. The arrangement: dose 1 mg/kg, route intravenous. As to conditions: plasma.
Data set [7] is described as follows: AUC in rat at 10 mg/kg, po. The class given is ADME, organism-based. The arrangement: dose 10 mg/kg, route oral. As to conditions: plasma.
Data set [8] has as its target T3, Muscarinic acetylcholine receptor M1. The experiment in a line: Agonist activity at rat muscarinic M1 receptor expressed in CHO cells. The class given is functional, cell-based.
The target of data set [9] is T4, Muscarinic acetylcholine receptor M5 (Rattus norvegicus, UniProt P08911).
T4 sequence (P08911 whole entry): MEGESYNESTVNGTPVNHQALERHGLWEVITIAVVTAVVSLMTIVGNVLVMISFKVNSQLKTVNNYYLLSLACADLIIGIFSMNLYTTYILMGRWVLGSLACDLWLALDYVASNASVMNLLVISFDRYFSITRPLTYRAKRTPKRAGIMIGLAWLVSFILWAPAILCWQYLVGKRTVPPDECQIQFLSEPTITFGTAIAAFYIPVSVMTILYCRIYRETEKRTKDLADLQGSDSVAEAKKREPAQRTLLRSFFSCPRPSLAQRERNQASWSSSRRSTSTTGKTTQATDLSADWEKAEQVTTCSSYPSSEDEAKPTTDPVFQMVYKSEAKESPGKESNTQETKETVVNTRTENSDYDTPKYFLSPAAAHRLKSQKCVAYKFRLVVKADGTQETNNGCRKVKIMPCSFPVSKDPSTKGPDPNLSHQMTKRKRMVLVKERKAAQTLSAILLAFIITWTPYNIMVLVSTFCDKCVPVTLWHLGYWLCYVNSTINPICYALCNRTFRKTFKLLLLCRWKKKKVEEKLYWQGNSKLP
As to the kind of experiment: Agonist activity at rat recombinant muscarinic M5 receptor by HTS cell based assay. Format: functional.

Data set [10] has as its target D(2) dopamine receptor (Homo sapiens, UniProt P14416). As to the kind of experiment: Antagonist activity at dopamine D2 receptor. The class given is functional.
Data set [11] concerns the target T5, Muscarinic acetylcholine receptor M2 (Homo sapiens, UniProt P08172).
T5 sequence (P08172 whole entry): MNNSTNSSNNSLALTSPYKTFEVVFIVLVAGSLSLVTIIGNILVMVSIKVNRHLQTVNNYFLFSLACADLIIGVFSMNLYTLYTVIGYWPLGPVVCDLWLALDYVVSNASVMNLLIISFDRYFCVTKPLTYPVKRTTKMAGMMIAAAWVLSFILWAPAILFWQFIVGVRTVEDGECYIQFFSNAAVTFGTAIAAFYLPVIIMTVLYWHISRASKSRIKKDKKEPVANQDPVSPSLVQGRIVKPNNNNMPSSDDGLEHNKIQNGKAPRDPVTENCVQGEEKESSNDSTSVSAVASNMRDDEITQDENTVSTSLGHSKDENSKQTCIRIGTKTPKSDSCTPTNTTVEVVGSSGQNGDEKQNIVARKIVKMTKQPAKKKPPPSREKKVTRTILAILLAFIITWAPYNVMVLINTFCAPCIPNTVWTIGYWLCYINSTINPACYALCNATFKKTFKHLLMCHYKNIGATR
The experiment in a line: Agonist activity at human recombinant muscarinic M2 receptor by HTS cell based assay. The class given is functional.

Data set [12] concerns the target Muscarinic acetylcholine receptor M3 (Rattus norvegicus, UniProt P08483). As to the kind of experiment: Agonist activity at rat muscarinic M3 receptor expressed in CHO cells. Format: functional, cell-based.
Data set [13] has as its target T2, Muscarinic acetylcholine receptor M1 (Rattus norvegicus). As to the kind of experiment: Agonist activity at rat muscarinic M1 receptor expressed in CHO cells at 10 uM. The class given is functional, cell-based.
In data set [14] the target is T6, Muscarinic acetylcholine receptor M5 (Homo sapiens, UniProt P08912).
T6 sequence (P08912 whole entry): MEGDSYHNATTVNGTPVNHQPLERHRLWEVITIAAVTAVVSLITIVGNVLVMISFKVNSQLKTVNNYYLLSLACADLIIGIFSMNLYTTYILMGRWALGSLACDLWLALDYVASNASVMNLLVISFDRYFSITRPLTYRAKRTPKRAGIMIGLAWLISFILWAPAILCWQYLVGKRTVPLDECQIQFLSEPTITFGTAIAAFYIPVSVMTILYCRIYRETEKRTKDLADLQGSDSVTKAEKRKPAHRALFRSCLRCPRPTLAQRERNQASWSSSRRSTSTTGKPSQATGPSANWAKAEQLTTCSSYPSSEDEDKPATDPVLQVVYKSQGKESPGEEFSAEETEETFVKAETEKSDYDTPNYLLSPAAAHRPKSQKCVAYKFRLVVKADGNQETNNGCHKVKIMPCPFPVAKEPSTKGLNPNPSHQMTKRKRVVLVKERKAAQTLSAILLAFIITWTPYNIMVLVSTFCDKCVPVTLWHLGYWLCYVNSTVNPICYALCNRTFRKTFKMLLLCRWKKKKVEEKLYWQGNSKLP
The experiment in a line: Agonist activity at human recombinant muscarinic M5 receptor by HTS cell based assay. Format: functional.

The text below walks through data of ChEMBL document CHEMBL1914417 (Bioorg Med Chem Lett, 2011).

For orientation: EC50 means the concentration needed to bring the measured effect to its halfway point. By Emax is commonly meant the greatest response seen or fitted, relative to the assay's reference. As usually defined, the AUC is the area under the concentration-time curve, a measure of exposure. Higher therefore signals high exposure. In general, IC50 refers to the midpoint of a concentration-inhibition curve. Read a low IC50 as inhibition by little substance.

SMILES strings stand for the structures. The source made the active and inactive calls. The calls are words filed in the database; no cut-off is given here. Some results are limits rather than exact numbers.

Sequence of Muscarinic acetylcholine receptor M3 (Homo sapiens, UniProt P20309) (P20309 whole entry): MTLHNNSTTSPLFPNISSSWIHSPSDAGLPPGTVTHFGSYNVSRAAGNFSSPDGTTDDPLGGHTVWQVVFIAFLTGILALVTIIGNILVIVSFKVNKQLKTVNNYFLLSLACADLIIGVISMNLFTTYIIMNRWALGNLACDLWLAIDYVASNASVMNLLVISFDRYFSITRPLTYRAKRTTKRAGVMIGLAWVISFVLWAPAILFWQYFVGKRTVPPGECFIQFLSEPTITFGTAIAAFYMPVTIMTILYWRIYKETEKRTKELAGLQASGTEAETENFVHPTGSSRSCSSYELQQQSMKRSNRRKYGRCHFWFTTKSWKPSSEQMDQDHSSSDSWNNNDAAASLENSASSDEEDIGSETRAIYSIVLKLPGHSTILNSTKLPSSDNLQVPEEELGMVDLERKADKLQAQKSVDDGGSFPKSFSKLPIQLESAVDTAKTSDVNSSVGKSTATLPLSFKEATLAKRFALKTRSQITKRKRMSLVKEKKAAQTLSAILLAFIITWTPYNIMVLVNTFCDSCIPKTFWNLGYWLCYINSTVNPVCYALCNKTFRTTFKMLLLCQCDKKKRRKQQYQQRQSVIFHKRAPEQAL
Sequence of D(2) dopamine receptor (P14416 whole entry): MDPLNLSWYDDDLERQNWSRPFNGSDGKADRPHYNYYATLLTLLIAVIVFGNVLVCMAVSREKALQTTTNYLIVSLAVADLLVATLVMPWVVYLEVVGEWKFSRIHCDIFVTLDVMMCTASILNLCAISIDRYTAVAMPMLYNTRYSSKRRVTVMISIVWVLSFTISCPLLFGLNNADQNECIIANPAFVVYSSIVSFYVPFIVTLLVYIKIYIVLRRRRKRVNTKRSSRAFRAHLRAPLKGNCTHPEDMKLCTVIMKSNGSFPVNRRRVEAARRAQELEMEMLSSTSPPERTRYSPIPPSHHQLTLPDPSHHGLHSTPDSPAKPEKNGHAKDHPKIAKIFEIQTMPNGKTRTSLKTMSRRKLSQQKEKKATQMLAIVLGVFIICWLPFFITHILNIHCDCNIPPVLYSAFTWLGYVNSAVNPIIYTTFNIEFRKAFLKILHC
Sequence of Muscarinic acetylcholine receptor M3 (Rattus norvegicus, UniProt P08483) (P08483 whole entry): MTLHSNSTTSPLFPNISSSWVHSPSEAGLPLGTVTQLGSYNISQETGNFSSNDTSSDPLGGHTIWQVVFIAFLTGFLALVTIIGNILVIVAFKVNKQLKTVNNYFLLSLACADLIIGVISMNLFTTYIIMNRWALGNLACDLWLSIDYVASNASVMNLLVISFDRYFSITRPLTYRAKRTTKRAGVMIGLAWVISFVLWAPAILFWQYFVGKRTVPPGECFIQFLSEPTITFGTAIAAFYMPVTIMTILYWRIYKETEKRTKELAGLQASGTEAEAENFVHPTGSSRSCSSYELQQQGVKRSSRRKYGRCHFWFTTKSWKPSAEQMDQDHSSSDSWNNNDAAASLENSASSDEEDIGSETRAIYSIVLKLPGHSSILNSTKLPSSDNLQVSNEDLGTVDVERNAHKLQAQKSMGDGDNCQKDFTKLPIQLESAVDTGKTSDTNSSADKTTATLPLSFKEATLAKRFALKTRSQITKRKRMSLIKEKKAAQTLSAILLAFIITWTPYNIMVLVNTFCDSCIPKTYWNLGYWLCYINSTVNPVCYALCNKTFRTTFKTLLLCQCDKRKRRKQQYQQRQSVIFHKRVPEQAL

Regarding `CCOC(=O)N1CCC(N2CCC[C@@H](NC(=O)c3ccccc3C)C2)CC1`, the EC50 was more than 30 µM in data set [1]; more than 30 µM in data set [2]; 1.3 µM in [5]; 0.11 µM in data set [8]; more than 30 µM in data set [9]; more than 30 µM in data set [11]. The EC50 in data set [12] and in data set [14] was more than 30 µM in each case. The compound further showed a Fu in [3] of 5.8%. Further, the Emax in [4] came out at 96%. For the same compound, the AUC in data set [6] was 1100 ng·h/mL; in data set [7], 4200 ng·h/mL. This compound also showed an IC50 in data set [10] of more than 30 µM. For the same compound, the activation entry in [13] is “Active”.
Take `CCOC(=O)N1CCC(NCCNC(=O)c2ccccc2C)CC1`: the EC50 is more than 30 µM in data set [1]; more than 30 µM in data set [2]; 2.3 µM in data set [5]; 0.2 µM in data set [8] (cho); more than 30 µM in data set [9]; more than 30 µM in data set [11]. Besides, the EC50 in data set [12] and in [14] was more than 30 µM each time. In addition, the Emax in [4] was 81%. This compound also gave an IC50 in data set [10] of 4.5 µM.
